Where “and” joins values, the source holds several entries; their conditions need not be identical. Identical values can stand only once. Like-named read-outs stand apart in the source and are kept apart here. Marks after values point to notes of the source that are not given here.
What was measured:
[1] = molecular target: T1, GluN1/GluN2D (Rattus norvegicus, UniProt Q62645); assay type: cell-based; details: for time constant for agonist deactivation (τweighted): absence of QNZ46, continuous presence of glycine
[2] = molecular target: T2, GluN1/GluN2D (Rattus norvegicus, UniProt P35439+Q62645); details: read-out: EC50 of agonist
[3] = molecular target: GluN1/GluN2A (Rattus norvegicus, UniProt Q00959); assay type: cell-based
[4] = molecular target: GluN1/GluN2B (Rattus norvegicus, UniProt Q00960); assay type: cell-based
Sequence of GluN1/GluN2B (Q00960 27-1482, other chains not shown): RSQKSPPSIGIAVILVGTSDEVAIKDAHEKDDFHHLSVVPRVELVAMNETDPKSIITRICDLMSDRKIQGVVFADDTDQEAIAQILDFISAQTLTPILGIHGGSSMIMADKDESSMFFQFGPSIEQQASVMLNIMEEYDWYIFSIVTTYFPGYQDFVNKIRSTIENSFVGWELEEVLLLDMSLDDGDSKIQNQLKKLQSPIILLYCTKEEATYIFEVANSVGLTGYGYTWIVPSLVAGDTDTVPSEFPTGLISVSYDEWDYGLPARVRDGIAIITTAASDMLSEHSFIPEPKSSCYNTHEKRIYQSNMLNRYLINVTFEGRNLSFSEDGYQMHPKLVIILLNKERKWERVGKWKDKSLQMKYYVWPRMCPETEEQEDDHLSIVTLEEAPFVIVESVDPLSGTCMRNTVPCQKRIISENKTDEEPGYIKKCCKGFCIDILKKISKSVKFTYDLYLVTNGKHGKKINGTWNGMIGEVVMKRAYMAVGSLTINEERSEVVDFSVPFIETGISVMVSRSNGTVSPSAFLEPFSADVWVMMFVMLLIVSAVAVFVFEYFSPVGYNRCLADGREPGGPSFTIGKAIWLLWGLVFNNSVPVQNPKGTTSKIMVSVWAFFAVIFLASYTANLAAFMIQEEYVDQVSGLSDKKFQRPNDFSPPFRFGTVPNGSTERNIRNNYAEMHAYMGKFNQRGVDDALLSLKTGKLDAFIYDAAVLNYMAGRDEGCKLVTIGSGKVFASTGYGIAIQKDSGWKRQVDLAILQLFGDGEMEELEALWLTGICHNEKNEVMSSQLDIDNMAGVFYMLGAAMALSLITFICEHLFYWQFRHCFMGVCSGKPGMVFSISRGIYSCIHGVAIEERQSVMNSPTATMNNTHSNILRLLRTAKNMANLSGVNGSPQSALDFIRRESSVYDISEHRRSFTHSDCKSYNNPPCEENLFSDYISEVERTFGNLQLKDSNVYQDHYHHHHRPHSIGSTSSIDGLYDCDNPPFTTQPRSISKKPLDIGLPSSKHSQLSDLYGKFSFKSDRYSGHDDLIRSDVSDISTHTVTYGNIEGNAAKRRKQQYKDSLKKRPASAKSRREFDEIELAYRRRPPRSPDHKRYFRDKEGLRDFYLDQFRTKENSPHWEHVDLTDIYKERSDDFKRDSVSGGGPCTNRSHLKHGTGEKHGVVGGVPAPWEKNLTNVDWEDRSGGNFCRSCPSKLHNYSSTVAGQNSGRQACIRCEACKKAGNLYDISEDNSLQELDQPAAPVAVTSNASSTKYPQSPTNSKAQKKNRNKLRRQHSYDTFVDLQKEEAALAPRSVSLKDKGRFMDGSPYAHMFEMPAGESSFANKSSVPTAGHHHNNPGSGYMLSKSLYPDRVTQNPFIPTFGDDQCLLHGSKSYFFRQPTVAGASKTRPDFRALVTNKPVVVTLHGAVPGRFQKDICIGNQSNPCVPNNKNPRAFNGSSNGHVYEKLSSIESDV

[5] = molecular target: GluN1/GluN2C (Rattus norvegicus, UniProt Q00961); assay type: cell-based
Sequence of GluN1/GluN2C (Q00961 20-1237, other chains not shown): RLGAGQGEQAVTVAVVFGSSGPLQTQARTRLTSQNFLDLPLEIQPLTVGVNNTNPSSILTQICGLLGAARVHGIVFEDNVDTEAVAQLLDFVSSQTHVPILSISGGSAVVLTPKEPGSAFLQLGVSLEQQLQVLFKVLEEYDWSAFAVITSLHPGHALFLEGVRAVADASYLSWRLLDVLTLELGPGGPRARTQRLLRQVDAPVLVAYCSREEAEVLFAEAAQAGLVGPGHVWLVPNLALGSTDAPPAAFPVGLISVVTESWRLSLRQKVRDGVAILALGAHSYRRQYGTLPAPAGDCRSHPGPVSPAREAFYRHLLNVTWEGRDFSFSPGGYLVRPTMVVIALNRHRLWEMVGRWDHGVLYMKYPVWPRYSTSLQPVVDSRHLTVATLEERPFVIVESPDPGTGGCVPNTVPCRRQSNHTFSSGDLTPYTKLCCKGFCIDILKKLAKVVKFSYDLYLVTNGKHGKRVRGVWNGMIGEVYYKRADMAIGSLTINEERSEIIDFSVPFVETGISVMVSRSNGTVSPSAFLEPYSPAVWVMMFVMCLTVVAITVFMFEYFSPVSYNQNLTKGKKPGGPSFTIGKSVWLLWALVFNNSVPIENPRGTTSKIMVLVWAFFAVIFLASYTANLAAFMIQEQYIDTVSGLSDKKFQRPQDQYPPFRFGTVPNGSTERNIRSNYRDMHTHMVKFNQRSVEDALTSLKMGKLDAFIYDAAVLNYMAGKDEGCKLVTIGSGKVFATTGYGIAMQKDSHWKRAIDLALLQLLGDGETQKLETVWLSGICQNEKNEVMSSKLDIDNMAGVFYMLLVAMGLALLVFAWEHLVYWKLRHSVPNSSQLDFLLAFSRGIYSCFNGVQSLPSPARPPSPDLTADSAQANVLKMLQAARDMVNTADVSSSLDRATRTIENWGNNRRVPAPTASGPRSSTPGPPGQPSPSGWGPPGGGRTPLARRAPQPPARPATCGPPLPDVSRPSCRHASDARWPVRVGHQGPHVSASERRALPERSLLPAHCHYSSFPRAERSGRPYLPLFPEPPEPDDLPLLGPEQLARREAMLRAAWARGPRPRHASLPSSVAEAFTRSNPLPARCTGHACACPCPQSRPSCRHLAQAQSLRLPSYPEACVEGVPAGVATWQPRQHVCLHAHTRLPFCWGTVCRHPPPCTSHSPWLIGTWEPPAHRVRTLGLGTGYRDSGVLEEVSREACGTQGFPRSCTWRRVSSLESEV

[6] = molecular target: T1, GluN1/GluN2D; assay type: cell-based
[7] = molecular target: GluN1/2A-(2D S1) chimera (Rattus norvegicus, UniProt Q00959+Q62645); experiment: Two-electrode voltage-clamp recordings, chimeric receptor in Xenopus oocytes; assay type: cell-based
[8] = molecular target: GluN1/2A-(2D S2) chimera (Rattus norvegicus, UniProt Q00959+Q62645); experiment: as above; assay type: cell-based
[9] = molecular target: GluN1/2A-(2D S1+S2) chimera (Rattus norvegicus, UniProt Q00959+Q62645); experiment: as above; assay type: cell-based
[10] = molecular target: GluN1/GluN2A HDYS/QEQY + F680L + Y754K (Rattus norvegicus, UniProt P35439+Q00959, D675E/F680L/H674Q/S677Y/Y676Q/Y754K); experiment: Two-electrode voltage-clamp recordings, mutant receptor in Xenopus oocytes; assay type: cell-based
[11] = molecular target: GluN1/GluN2A HDYS/QEQY + F680L + Y754K (Rattus norvegicus, UniProt Q00959, D675E/F680L/H674Q/S677Y/Y676Q/Y754K); experiment: as above; assay type: cell-based
[12] = molecular target: GluN1/GluN2D QEQY/HDYS (Rattus norvegicus, UniProt P35439+Q62645, E700D/Q699H/Q701Y/Y702S); experiment: as above; assay type: cell-based
[13] = molecular target: GluN1/GluN2D QEQY/HDYS (Rattus norvegicus, UniProt Q62645, E700D/Q699H/Q701Y/Y702S); experiment: as above; assay type: cell-based
[14] = molecular target: GluN1/GluN2D Q701Y (Rattus norvegicus, UniProt P35439+Q62645, Q701Y); experiment: as above; assay type: cell-based
[15] = molecular target: GluN1/GluN2D Q701Y (Rattus norvegicus, UniProt Q62645, Q701Y); experiment: as above; assay type: cell-based
[16] = molecular target: GluN1/GluN2D L705F (Rattus norvegicus, UniProt P35439+Q62645, L705F); experiment: as above; assay type: cell-based
[17] = molecular target: GluN1/GluN2D L705F (Rattus norvegicus, UniProt Q62645, L705F); experiment: as above; assay type: cell-based
[18] = molecular target: GluN1/GluN2D K779Y (Rattus norvegicus, UniProt P35439+Q62645, K779Y); experiment: as above; assay type: cell-based
[19] = molecular target: GluN1/GluN2D K779Y (Rattus norvegicus, UniProt Q62645, K779Y); experiment: as above; assay type: cell-based
[20] = molecular target: GluN1/GluN2D QEQY/HDYS + L705F + K779Y (Rattus norvegicus, UniProt P35439+Q62645, E700D/K779Y/L705F/Q699H/Q701Y/Y702S); experiment: as above; assay type: cell-based
[21] = molecular target: GluN1/GluN2D QEQY/HDYS + L705F + K779Y (Rattus norvegicus, UniProt Q62645, E700D/K779Y/L705F/Q699H/Q701Y/Y702S); experiment: as above; assay type: cell-based
[22] = molecular target: GluN1/GluN2D Y723A (Rattus norvegicus, UniProt P35439+Q62645, Y723A); experiment: as above; assay type: cell-based
[23] = molecular target: GluN1/GluN2D Y723A (Rattus norvegicus, UniProt Q62645, Y723A); experiment: as above; assay type: cell-based
[24] = molecular target: GluN1/GluN2D M726A (Rattus norvegicus, UniProt P35439+Q62645, M726A); experiment: as above; assay type: cell-based
[25] = molecular target: GluN1/GluN2D M726A (Rattus norvegicus, UniProt Q62645, M726A); experiment: as above; assay type: cell-based
[26] = molecular target: GluN1/GluN2D Y729A (Rattus norvegicus, UniProt P35439+Q62645, Y729A); experiment: as above; assay type: cell-based
[27] = molecular target: GluN1/GluN2D Y729A (Rattus norvegicus, UniProt Q62645, Y729A); experiment: as above; assay type: cell-based
[28] = molecular target: GluN1/GluN2D A752V (Rattus norvegicus, UniProt P35439+Q62645, A752V); experiment: as above; assay type: cell-based
[29] = molecular target: GluN1/GluN2D A752V (Rattus norvegicus, UniProt Q62645, A752V); experiment: as above; assay type: cell-based
[30] = molecular target: T2, GluN1/GluN2D; assay type: cell-based
[31] = extracellular oocyte recording solution; ref Mosley et al., 2010; cited from earlier work
[32] = fixed during fitting to the Hill equation
[33] = fold shift relative to GluN1/GluN2D
[34] = 1 μM QNZ46 plus glycine continuously present, after removal of glutamate
[35] = 3 μM QNZ46 plus glycine continuously present, after removal of glutamate

N[C@@H](CCC(=O)O)C(=O)O [glutamate]
time constant for agonist deactivation (τweighted) [1]: 3810 ms
EC50 ([2]; in the absence of QNZ46): 0.44 µM
EC50 ([2]; in the presence of 10 μM QNZ46): 0.22 µM

CN[C@H](CC(=O)O)C(=O)O [NMDA, N-methyl-D-aspartate, reference compound]
time constant for agonist deactivation (τweighted) [1]: 92 ms

COc1ccc2nc(/C=C/c3cccc([N+](=O)[O-])c3)n(-c3ccc(C(=O)O)cc3)c(=O)c2c1 [QNZ46, (E)-4-(6-methoxy-2-(3-nitrostyryl)-4-oxoquinazolin-3(4H)-yl)-benzoic acid]
nH (Hill slope) [3, 32]: 1.0 ^a
Relative IC50 (IC50 2X / IC50 2D) [3, 33]: 47
nH (Hill slope) [4, 32]: 1.0 ^a
Relative IC50 (IC50 2X / IC50 2D) [4, 33]: 49
nH (Hill slope) [5]: 1.0
Relative IC50 (IC50 2X / IC50 2D) [5, 33]: 1.8
nH (Hill slope) [6]: 1.1
selectivity for GluN2C- and GluN2D-containing receptors over receptors containing GluN2A or GluN2B [6]: ~ 50 fold
Relative IC50 (IC50 2X / IC50 2D) [6, 33]: 1.0
difference in QNZ46 IC50 values between GluN2A- and GluN2D-containing receptors ([6]; rat, xenopus oocytes): ~ 50 fold and 50 fold
nH (Hill slope) [7, 32]: 1.0 ^a
Relative IC50 (IC50 2X / IC50 2D) ([7]; fold shift relative to GluN2D): 23
nH (Hill slope) [8]: 1.1
Relative IC50 (IC50 2X / IC50 2D) ([8]; fold shift relative to GluN2D): 1.2
nH (Hill slope) [9]: 1.1
Relative IC50 (IC50 2X / IC50 2D) ([9]; fold shift relative to GluN2D): 1.2
IC50 [10]: 17 ± 1 µM
nH (Hill slope) [11]: 1.2
Relative IC50 (IC50 2X / IC50 2D) ([11]; fold shift relative to GluN2D): 4.4
IC50 [12]: 10 ± 1 µM
nH (Hill slope) [13]: 1.0
Relative IC50 (IC50 2X / IC50 2D) ([13]; fold shift relative to GluN2D): 2.6
IC50 [14]: 7.7 ± 0.7 µM
nH (Hill slope) [15]: 1.0
Relative IC50 (IC50 2X / IC50 2D) ([15]; fold shift relative to GluN2D): 2.0
IC50 [16]: 23 ± 2 µM
nH (Hill slope) [17]: 1.1
Relative IC50 (IC50 2X / IC50 2D) ([17]; fold shift relative to GluN2D): 5.9
IC50 [18]: 19 ± 2 µM
nH (Hill slope) [19]: 1.2
Relative IC50 (IC50 2X / IC50 2D) ([19]; fold shift relative to GluN2D): 4.9
IC50 [20]: 15 ± 1 µM
nH (Hill slope) [21]: 1.0
Relative IC50 (IC50 2X / IC50 2D) ([21]; fold shift relative to GluN2D): 3.8
IC50 [22]: 7.6 ± 0.6 µM
nH (Hill slope) [23]: 1.3
Relative IC50 (IC50 2X / IC50 2D) ([23]; fold shift relative to GluN2D): 1.9
IC50 [24]: 0.5 ± 0.02 µM
nH (Hill slope) [25]: 1.1
Relative IC50 (IC50 2X / IC50 2D) ([25]; fold shift relative to GluN2D): 0.1
IC50 [26]: 0.7 ± 0.04 µM
nH (Hill slope) [27]: 1.0
Relative IC50 (IC50 2X / IC50 2D) ([27]; fold shift relative to GluN2D): 0.2
IC50 [28]: 16 ± 1 µM
nH (Hill slope) [29]: 1.0
Relative IC50 (IC50 2X / IC50 2D) ([29]; fold shift relative to GluN2D): 4.1
Kd [30]: 4.9 µM
inhibition at 1 µM ([30]; HEK293, read-out: % inhibition of steady-state responses, 1 μM QNZ46 applied after activation): 23 ± 1%
inhibition at 1 µM ([30]; HEK293, read-out: % inhibition of steady-state responses, 1 μM QNZ46 present before, during, and after activation): 28 ± 3%
inhibition at 3 µM ([30]; HEK293, read-out: % inhibition of steady-state responses, 3 μM QNZ46 applied after activation): 50 ± 2%
inhibition at 3 µM ([30]; HEK293, read-out: % inhibition of steady-state responses, 3 μM QNZ46 present before, during, and after activation): 46 ± 3%
inhibition at 10 µM ([30]; HEK293, read-out: % inhibition of steady-state responses, 10 μM QNZ46 applied after activation): 75 ± 1%
inhibition at 10 µM ([30]; HEK293, read-out: % inhibition of steady-state responses, 10 μM QNZ46 present before, during, and after activation): 73 ± 2%
inhibition at 20 µM ([30]; HEK293, read-out: % inhibition of steady-state responses, 20 μM QNZ46 applied after activation): 88 ± 1%
inhibition at 20 µM ([30]; HEK293, read-out: % inhibition of steady-state responses, 20 μM QNZ46 present before, during, and after activation): 85 ± 2%
inhibition at 10 µM ([30]; HEK293, read-out: inhibition of the instantaneous current (pre-inhibition), 10 μM QNZ46 alone, nominal absence of glutamate plus glycine): ~11%
τinhibition ([1]; 1 μM QNZ46 applied after activation): 356 ± 6 ms
Deactivation % slow ([1]; 1 μM QNZ46 plus glycine continuously present): 78%
Deactivation τfast [1, 34]: 1210 ± 150 ms
Deactivation τslow [1, 34]: 5640 ± 160 ms
τinhibition ([1]; 1 μM QNZ46 present before, during, and after activation): 344 ± 6 ms
τinhibition ([1]; 3 μM QNZ46 applied after activation): 268 ± 11 ms
Deactivation % slow ([1]; 3 μM QNZ46 plus glycine continuously present): 79%
Deactivation τfast [1, 35]: 1340 ± 50 ms
Deactivation τslow [1, 35]: 7100 ± 180 ms
τinhibition ([1]; 3 μM QNZ46 present before, during, and after activation): 244 ± 5 ms
voltage-dependence of inhibition ([1]; 10 μM QNZ46, 1000 μM glutamate plus 100 μM glycine): independent of membrane holding potential
τinhibition ([1]; 10 μM QNZ46 applied after activation): 145 ± 13 ms
Deactivation % slow ([1]; 10 μM QNZ46 plus glycine continuously present): 100%
Deactivation τslow ([1]; 10 μM QNZ46 plus glycine continuously present, mono-exponential fit): 8150 ± 330 ms
τinhibition ([1]; 10 μM QNZ46 present before, during, and after activation): 116 ± 3 ms
τinhibition ([1]; 20 μM QNZ46 applied after activation): 91 ± 11 ms
Deactivation % slow ([1]; 20 μM QNZ46 plus glycine continuously present): 100%
Deactivation τslow ([1]; 20 μM QNZ46 plus glycine continuously present, mono-exponential fit): 10130 ± 280 ms
τinhibition ([1]; 20 μM QNZ46 present before, during, and after activation): 74 ± 2 ms
increase in QNZ46 potency by glutamate binding to GluN2D ([1]; IC50 with glutamate vs glycine alone or no agonists): > 10 fold
τoff for QNZ46 ([1]; continuous presence of glutamate): 460 ms
dependence of inhibition on agonist concentration ([1]; increasing concentrations of glutamate or glycine): independent of agonist concentration
increase of time constants for deactivation (τweighted) in the presence of QNZ46 ([1]; up to, QNZ46 1 – 20 μM, after removal of glutamate): ~ 2 fold
maximum solubility [31]: 70 µM

Source: publication PMC3063124 (The Journal of neuroscience : the official journal of the …, 2011)
